# Measurements reported in ChEMBL document CHEMBL1157545, “Synthesis and cancer cell cytotoxicity of substituted xanthenes” (Bioorg Med Chem, 2010).
# The source made the active and inactive calls. The calls are words filed in the database; no cut-off is given here.
# System: HeLa
# Test: Cytotoxicity against human HeLa cells after 48 hrs
# Assay type: functional, cell-based
# Settings: not given
row,Compound,IC50
1,COc1cccc(C2(O)c3ccccc3Oc3cc(C(=O)N4CCN(C)CC4)ccc32)c1 (configuration not stated),111 µM
2,C=CC1(O)c2ccccc2Oc2cc(C(=O)N3CCN(C)CC3)ccc21 (configuration not stated),74 µM
3,CN1CCN(C(=O)c2ccc3c(c2)Oc2ccc(Cl)cc2C3(O)c2ccccc2)CC1 (configuration not stated),158 µM
4,O=C(c1ccc2c(c1)Oc1ccccc1C2(O)c1ccccc1)N1CCOCC1 (configuration not stated),120 µM
5,COc1cccc(C2(O)c3ccccc3Oc3cc(C(=O)N4CCOCC4)ccc32)c1 (configuration not stated),153 µM
6,C=CC1(O)c2ccc(C(=O)N3CCN(C)CC3)cc2Oc2ccc(F)cc21 (configuration not stated),230 µM
7,CN1CCN(C(=O)c2ccc3c(c2)Oc2ccccc2C3(C)O)CC1 (configuration not stated),121 µM
8,CCC1(O)c2ccc(C(=O)N3CCN(C)CC3)cc2Oc2ccc(Cl)cc21 (configuration not stated),153 µM
9,COc1cccc(C2(O)c3ccc(C(=O)N4CCN(C)CC4)cc3Oc3ccc(Cl)cc32)c1 (configuration not stated),94 µM
10,CCC1(O)c2ccc(C(=O)N3CCN(C)CC3)cc2Oc2ccc(F)cc21 (configuration not stated),127 µM
11,CN1CCN(C(=O)c2ccc3c(c2)Oc2ccc(F)cc2C3(C)O)CC1 (configuration not stated),> 300 µM
12,CN1CCN(C(=O)c2ccc3c(c2)Oc2ccccc2C3(O)c2ccccc2)CC1 (configuration not stated),170 µM
13,O=c1c2ccccc2oc2ccccc12 [XANTHONE],> 500 µM
14,C=CC1(O)c2ccc(C(=O)N3CCN(C)CC3)cc2Oc2ccc(Cl)cc21 (configuration not stated),285 µM
15,CN(C)C(=O)c1ccc2c(c1)Oc1ccccc1C2(O)c1ccccc1 (configuration not stated),67 µM
16,CN1CCN(C(=O)c2ccc3c(c2)Oc2ccc(F)cc2C3(O)c2ccccc2)CC1 (configuration not stated),109 µM
17,COc1cccc(C2(O)c3ccc(C(=O)N4CCN(C)CC4)cc3Oc3ccc(F)cc32)c1 (configuration not stated),85 µM
18,COc1cccc(C2(O)c3ccccc3Oc3ccccc32)c1,85 µM
19,CCC1(O)c2ccccc2Oc2cc(C(=O)N3CCN(C)CC3)ccc21 (configuration not stated),213 µM
20,COc1cccc(C2(O)c3ccccc3Oc3cc(C(=O)N(C)C)ccc32)c1 (configuration not stated),44 µM
21,CN1CCN(C(=O)c2ccc3c(c2)Oc2ccc(Cl)cc2C3(C)O)CC1 (configuration not stated),264 µM
22,OC1(c2ccccc2)c2ccccc2Oc2ccccc21,> 500 µM

# Molecular target: DNA topoisomerase 2-alpha (Homo sapiens) (UniProt P11388)
# Test: Inhibition of human DNA topoisomerase 2 at 250 uM by DNA relaxation assay
# Settings: not given
# Sequence of DNA topoisomerase 2-alpha (Homo sapiens) (P11388 whole entry): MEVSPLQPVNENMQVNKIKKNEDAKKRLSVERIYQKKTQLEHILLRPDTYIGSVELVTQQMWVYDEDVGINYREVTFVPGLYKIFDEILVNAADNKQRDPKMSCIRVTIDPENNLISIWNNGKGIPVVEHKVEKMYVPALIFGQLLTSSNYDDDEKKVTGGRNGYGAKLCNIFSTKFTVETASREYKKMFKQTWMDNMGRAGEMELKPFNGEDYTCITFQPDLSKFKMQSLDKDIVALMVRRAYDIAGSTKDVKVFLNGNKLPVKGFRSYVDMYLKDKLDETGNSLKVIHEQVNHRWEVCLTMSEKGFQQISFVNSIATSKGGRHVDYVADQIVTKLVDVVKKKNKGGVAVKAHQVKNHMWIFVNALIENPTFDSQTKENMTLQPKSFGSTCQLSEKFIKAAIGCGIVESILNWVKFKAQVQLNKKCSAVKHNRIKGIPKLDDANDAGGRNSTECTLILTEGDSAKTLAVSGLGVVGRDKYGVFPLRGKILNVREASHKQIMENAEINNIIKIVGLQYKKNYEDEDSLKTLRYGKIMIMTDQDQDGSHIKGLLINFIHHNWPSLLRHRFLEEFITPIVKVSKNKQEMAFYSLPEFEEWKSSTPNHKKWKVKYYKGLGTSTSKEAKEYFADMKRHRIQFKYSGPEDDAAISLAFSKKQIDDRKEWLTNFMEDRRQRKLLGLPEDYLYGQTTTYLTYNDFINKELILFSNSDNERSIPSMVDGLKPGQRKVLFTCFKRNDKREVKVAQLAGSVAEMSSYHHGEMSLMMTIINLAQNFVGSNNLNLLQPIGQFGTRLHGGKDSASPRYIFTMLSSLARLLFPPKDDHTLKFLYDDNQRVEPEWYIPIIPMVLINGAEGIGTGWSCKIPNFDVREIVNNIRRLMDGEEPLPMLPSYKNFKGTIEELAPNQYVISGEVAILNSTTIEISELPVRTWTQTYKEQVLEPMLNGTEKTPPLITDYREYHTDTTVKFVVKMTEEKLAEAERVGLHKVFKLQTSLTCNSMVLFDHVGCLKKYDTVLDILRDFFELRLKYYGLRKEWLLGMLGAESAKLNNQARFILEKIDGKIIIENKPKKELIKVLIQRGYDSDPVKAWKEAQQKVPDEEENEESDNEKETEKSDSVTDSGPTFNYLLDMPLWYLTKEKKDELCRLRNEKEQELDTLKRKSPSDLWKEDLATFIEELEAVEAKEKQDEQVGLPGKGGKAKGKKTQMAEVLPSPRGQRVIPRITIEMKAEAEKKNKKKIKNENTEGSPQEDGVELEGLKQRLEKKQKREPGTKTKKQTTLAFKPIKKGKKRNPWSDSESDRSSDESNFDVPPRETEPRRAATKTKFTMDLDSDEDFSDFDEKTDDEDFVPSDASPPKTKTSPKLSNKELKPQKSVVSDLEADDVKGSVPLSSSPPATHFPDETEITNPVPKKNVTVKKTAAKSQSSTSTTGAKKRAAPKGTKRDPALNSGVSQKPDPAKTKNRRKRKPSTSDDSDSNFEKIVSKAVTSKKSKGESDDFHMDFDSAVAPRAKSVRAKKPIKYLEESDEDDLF
row,inhibition,Compound
1,inactive,C=CC1(O)c2ccc(C(=O)N3CCN(C)CC3)cc2Oc2ccc(F)cc21 (configuration not stated)
2,inactive,CN(C)C(=O)c1ccc2c(c1)Oc1ccccc1C2(O)c1ccccc1 (configuration not stated)
3,inactive,CN1CCN(C(=O)c2ccc3c(c2)Oc2ccc(F)cc2C3(O)c2ccccc2)CC1 (configuration not stated)
4,inactive,COc1cccc(C2(O)c3ccc(C(=O)N4CCN(C)CC4)cc3Oc3ccc(F)cc32)c1 (configuration not stated)
5,inactive,COc1cccc(C2(O)c3ccccc3Oc3ccccc32)c1
6,inactive,COc1cccc(C2(O)c3ccccc3Oc3cc(C(=O)N(C)C)ccc32)c1 (configuration not stated)

# System: Nucleic Acid
# Test: Binding affinity to DNA assessed as DNA intercalation at 50 uM
# Assay type: nucleic-acid assay
# Settings: not given
row,Compound,Activity
1,COc1cccc(C2(O)c3ccccc3Oc3cc(C(=O)N4CCN(C)CC4)ccc32)c1 (configuration not stated),inactive
2,O=C(c1ccc2c(c1)Oc1ccccc1C2(O)c1ccccc1)N1CCOCC1 (configuration not stated),inactive
3,COc1cccc(C2(O)c3ccccc3Oc3cc(C(=O)N4CCOCC4)ccc32)c1 (configuration not stated),inactive
4,CN1CCN(C(=O)c2ccc3c(c2)Oc2ccccc2C3(O)c2ccccc2)CC1 (configuration not stated),inactive
5,O=c1c2ccccc2oc2ccccc12 [XANTHONE],inactive
6,CN(C)C(=O)c1ccc2c(c1)Oc1ccccc1C2(O)c1ccccc1 (configuration not stated),inactive
7,CN1CCN(C(=O)c2ccc3c(c2)Oc2ccc(F)cc2C3(O)c2ccccc2)CC1 (configuration not stated),inactive
8,COc1cccc(C2(O)c3ccc(C(=O)N4CCN(C)CC4)cc3Oc3ccc(F)cc32)c1 (configuration not stated),inactive
9,COc1cccc(C2(O)c3ccccc3Oc3ccccc32)c1,inactive
10,CCC1(O)c2ccccc2Oc2cc(C(=O)N3CCN(C)CC3)ccc21 (configuration not stated),inactive
11,COc1cccc(C2(O)c3ccccc3Oc3cc(C(=O)N(C)C)ccc32)c1 (configuration not stated),inactive
12,OC1(c2ccccc2)c2ccccc2Oc2ccccc21,inactive

# Second part, the compound after the results:
row,Activity,Compound
1,inactive,C=CC1(O)c2ccccc2Oc2cc(C(=O)N3CCN(C)CC3)ccc21 (configuration not stated)
2,inactive,CN1CCN(C(=O)c2ccc3c(c2)Oc2ccc(Cl)cc2C3(O)c2ccccc2)CC1 (configuration not stated)
3,inactive,C=CC1(O)c2ccc(C(=O)N3CCN(C)CC3)cc2Oc2ccc(F)cc21 (configuration not stated)
4,inactive,CN1CCN(C(=O)c2ccc3c(c2)Oc2ccccc2C3(C)O)CC1 (configuration not stated)
5,inactive,CCC1(O)c2ccc(C(=O)N3CCN(C)CC3)cc2Oc2ccc(Cl)cc21 (configuration not stated)
6,inactive,COc1cccc(C2(O)c3ccc(C(=O)N4CCN(C)CC4)cc3Oc3ccc(Cl)cc32)c1 (configuration not stated)
7,inactive,CCC1(O)c2ccc(C(=O)N3CCN(C)CC3)cc2Oc2ccc(F)cc21 (configuration not stated)
8,inactive,CN1CCN(C(=O)c2ccc3c(c2)Oc2ccc(F)cc2C3(C)O)CC1 (configuration not stated)
9,inactive,C=CC1(O)c2ccc(C(=O)N3CCN(C)CC3)cc2Oc2ccc(Cl)cc21 (configuration not stated)
10,inactive,CN1CCN(C(=O)c2ccc3c(c2)Oc2ccc(Cl)cc2C3(C)O)CC1 (configuration not stated)

# System: DU-145
# Test: Cytotoxicity against human DU145 cells after 48 hrs
# Assay type: functional, cell-based
# Settings: DU-145, 48 h
row,Compound,IC50
1,COc1cccc(C2(O)c3ccccc3Oc3cc(C(=O)N4CCN(C)CC4)ccc32)c1 (configuration not stated),139 µM
2,C=CC1(O)c2ccccc2Oc2cc(C(=O)N3CCN(C)CC3)ccc21 (configuration not stated),63 µM
3,CN1CCN(C(=O)c2ccc3c(c2)Oc2ccc(Cl)cc2C3(O)c2ccccc2)CC1 (configuration not stated),117 µM
4,O=C(c1ccc2c(c1)Oc1ccccc1C2(O)c1ccccc1)N1CCOCC1 (configuration not stated),125 µM
5,COc1cccc(C2(O)c3ccccc3Oc3cc(C(=O)N4CCOCC4)ccc32)c1 (configuration not stated),163 µM
6,C=CC1(O)c2ccc(C(=O)N3CCN(C)CC3)cc2Oc2ccc(F)cc21 (configuration not stated),> 300 µM
7,CN1CCN(C(=O)c2ccc3c(c2)Oc2ccccc2C3(C)O)CC1 (configuration not stated),119 µM
8,CCC1(O)c2ccc(C(=O)N3CCN(C)CC3)cc2Oc2ccc(Cl)cc21 (configuration not stated),145 µM
9,COc1cccc(C2(O)c3ccc(C(=O)N4CCN(C)CC4)cc3Oc3ccc(Cl)cc32)c1 (configuration not stated),92 µM
10,CCC1(O)c2ccc(C(=O)N3CCN(C)CC3)cc2Oc2ccc(F)cc21 (configuration not stated),139 µM
11,CN1CCN(C(=O)c2ccc3c(c2)Oc2ccc(F)cc2C3(C)O)CC1 (configuration not stated),> 300 µM
12,CN1CCN(C(=O)c2ccc3c(c2)Oc2ccccc2C3(O)c2ccccc2)CC1 (configuration not stated),> 300 µM
13,O=c1c2ccccc2oc2ccccc12 [XANTHONE],> 500 µM
14,C=CC1(O)c2ccc(C(=O)N3CCN(C)CC3)cc2Oc2ccc(Cl)cc21 (configuration not stated),208 µM
15,CN(C)C(=O)c1ccc2c(c1)Oc1ccccc1C2(O)c1ccccc1 (configuration not stated),59 µM
16,CN1CCN(C(=O)c2ccc3c(c2)Oc2ccc(F)cc2C3(O)c2ccccc2)CC1 (configuration not stated),84 µM
17,COc1cccc(C2(O)c3ccc(C(=O)N4CCN(C)CC4)cc3Oc3ccc(F)cc32)c1 (configuration not stated),55 µM
18,COc1cccc(C2(O)c3ccccc3Oc3ccccc32)c1,59 µM
19,CCC1(O)c2ccccc2Oc2cc(C(=O)N3CCN(C)CC3)ccc21 (configuration not stated),195 µM
20,COc1cccc(C2(O)c3ccccc3Oc3cc(C(=O)N(C)C)ccc32)c1 (configuration not stated),36 µM
21,CN1CCN(C(=O)c2ccc3c(c2)Oc2ccc(Cl)cc2C3(C)O)CC1 (configuration not stated),241 µM
22,OC1(c2ccccc2)c2ccccc2Oc2ccccc21,> 500 µM

# System: Nucleic Acid
# Test: Binding affinity to DNA assessed as DNA intercalation at 250 uM
# Assay type: nucleic-acid assay
# Settings: not given
row,Compound,Activity
1,COc1cccc(C2(O)c3ccccc3Oc3cc(C(=O)N4CCN(C)CC4)ccc32)c1 (configuration not stated),inactive
2,O=C(c1ccc2c(c1)Oc1ccccc1C2(O)c1ccccc1)N1CCOCC1 (configuration not stated),inactive
3,COc1cccc(C2(O)c3ccccc3Oc3cc(C(=O)N4CCOCC4)ccc32)c1 (configuration not stated),inactive
4,CN1CCN(C(=O)c2ccc3c(c2)Oc2ccccc2C3(O)c2ccccc2)CC1 (configuration not stated),inactive
5,O=c1c2ccccc2oc2ccccc12 [XANTHONE],inactive
6,CN(C)C(=O)c1ccc2c(c1)Oc1ccccc1C2(O)c1ccccc1 (configuration not stated),inactive
7,CN1CCN(C(=O)c2ccc3c(c2)Oc2ccc(F)cc2C3(O)c2ccccc2)CC1 (configuration not stated),inactive
8,COc1cccc(C2(O)c3ccc(C(=O)N4CCN(C)CC4)cc3Oc3ccc(F)cc32)c1 (configuration not stated),inactive
9,COc1cccc(C2(O)c3ccccc3Oc3ccccc32)c1,inactive
10,CCC1(O)c2ccccc2Oc2cc(C(=O)N3CCN(C)CC3)ccc21 (configuration not stated),inactive
11,COc1cccc(C2(O)c3ccccc3Oc3cc(C(=O)N(C)C)ccc32)c1 (configuration not stated),inactive
12,OC1(c2ccccc2)c2ccccc2Oc2ccccc21,inactive

# Second part, the compound after the results:
row,Activity,Compound
1,inactive,C=CC1(O)c2ccccc2Oc2cc(C(=O)N3CCN(C)CC3)ccc21 (configuration not stated)
2,inactive,CN1CCN(C(=O)c2ccc3c(c2)Oc2ccc(Cl)cc2C3(O)c2ccccc2)CC1 (configuration not stated)
3,inactive,C=CC1(O)c2ccc(C(=O)N3CCN(C)CC3)cc2Oc2ccc(F)cc21 (configuration not stated)
4,inactive,CN1CCN(C(=O)c2ccc3c(c2)Oc2ccccc2C3(C)O)CC1 (configuration not stated)
5,inactive,CCC1(O)c2ccc(C(=O)N3CCN(C)CC3)cc2Oc2ccc(Cl)cc21 (configuration not stated)
6,inactive,COc1cccc(C2(O)c3ccc(C(=O)N4CCN(C)CC4)cc3Oc3ccc(Cl)cc32)c1 (configuration not stated)
7,inactive,CCC1(O)c2ccc(C(=O)N3CCN(C)CC3)cc2Oc2ccc(F)cc21 (configuration not stated)
8,inactive,CN1CCN(C(=O)c2ccc3c(c2)Oc2ccc(F)cc2C3(C)O)CC1 (configuration not stated)
9,inactive,C=CC1(O)c2ccc(C(=O)N3CCN(C)CC3)cc2Oc2ccc(Cl)cc21 (configuration not stated)
10,inactive,CN1CCN(C(=O)c2ccc3c(c2)Oc2ccc(Cl)cc2C3(C)O)CC1 (configuration not stated)

# Molecular target: DNA topoisomerase 2-alpha (Homo sapiens) (UniProt P11388)
# Test: Inhibition of human DNA topoisomerase 2 at 50 uM by DNA relaxation assay
# Settings: not given
row,inhibition,Compound
1,inactive,C=CC1(O)c2ccc(C(=O)N3CCN(C)CC3)cc2Oc2ccc(F)cc21 (configuration not stated)
2,inactive,CN(C)C(=O)c1ccc2c(c1)Oc1ccccc1C2(O)c1ccccc1 (configuration not stated)
3,inactive,CN1CCN(C(=O)c2ccc3c(c2)Oc2ccc(F)cc2C3(O)c2ccccc2)CC1 (configuration not stated)
4,inactive,COc1cccc(C2(O)c3ccc(C(=O)N4CCN(C)CC4)cc3Oc3ccc(F)cc32)c1 (configuration not stated)
5,inactive,COc1cccc(C2(O)c3ccccc3Oc3ccccc32)c1
6,inactive,COc1cccc(C2(O)c3ccccc3Oc3cc(C(=O)N(C)C)ccc32)c1 (configuration not stated)

# System: MCF7
# Test: Cytotoxicity against human MCF7 cells after 48 hrs
# Assay type: functional, cell-based
# Settings: MCF7, 48 h
row,Compound,IC50
1,COc1cccc(C2(O)c3ccccc3Oc3cc(C(=O)N4CCN(C)CC4)ccc32)c1 (configuration not stated),125 µM
2,C=CC1(O)c2ccccc2Oc2cc(C(=O)N3CCN(C)CC3)ccc21 (configuration not stated),74 µM
3,CN1CCN(C(=O)c2ccc3c(c2)Oc2ccc(Cl)cc2C3(O)c2ccccc2)CC1 (configuration not stated),95 µM
4,O=C(c1ccc2c(c1)Oc1ccccc1C2(O)c1ccccc1)N1CCOCC1 (configuration not stated),134 µM
5,COc1cccc(C2(O)c3ccccc3Oc3cc(C(=O)N4CCOCC4)ccc32)c1 (configuration not stated),151 µM
6,C=CC1(O)c2ccc(C(=O)N3CCN(C)CC3)cc2Oc2ccc(F)cc21 (configuration not stated),254 µM
7,CN1CCN(C(=O)c2ccc3c(c2)Oc2ccccc2C3(C)O)CC1 (configuration not stated),115 µM
8,CCC1(O)c2ccc(C(=O)N3CCN(C)CC3)cc2Oc2ccc(Cl)cc21 (configuration not stated),180 µM
9,COc1cccc(C2(O)c3ccc(C(=O)N4CCN(C)CC4)cc3Oc3ccc(Cl)cc32)c1 (configuration not stated),72 µM
10,CCC1(O)c2ccc(C(=O)N3CCN(C)CC3)cc2Oc2ccc(F)cc21 (configuration not stated),138 µM
11,CN1CCN(C(=O)c2ccc3c(c2)Oc2ccc(F)cc2C3(C)O)CC1 (configuration not stated),208 µM
12,CN1CCN(C(=O)c2ccc3c(c2)Oc2ccccc2C3(O)c2ccccc2)CC1 (configuration not stated),169 µM
13,O=c1c2ccccc2oc2ccccc12 [XANTHONE],> 500 µM
14,C=CC1(O)c2ccc(C(=O)N3CCN(C)CC3)cc2Oc2ccc(Cl)cc21 (configuration not stated),> 500 µM
15,CN(C)C(=O)c1ccc2c(c1)Oc1ccccc1C2(O)c1ccccc1 (configuration not stated),62 µM
16,CN1CCN(C(=O)c2ccc3c(c2)Oc2ccc(F)cc2C3(O)c2ccccc2)CC1 (configuration not stated),62 µM
17,COc1cccc(C2(O)c3ccc(C(=O)N4CCN(C)CC4)cc3Oc3ccc(F)cc32)c1 (configuration not stated),46 µM
18,COc1cccc(C2(O)c3ccccc3Oc3ccccc32)c1,82 µM
19,CCC1(O)c2ccccc2Oc2cc(C(=O)N3CCN(C)CC3)ccc21 (configuration not stated),218 µM
20,COc1cccc(C2(O)c3ccccc3Oc3cc(C(=O)N(C)C)ccc32)c1 (configuration not stated),50 µM
21,CN1CCN(C(=O)c2ccc3c(c2)Oc2ccc(Cl)cc2C3(C)O)CC1 (configuration not stated),160 µM
22,OC1(c2ccccc2)c2ccccc2Oc2ccccc21,> 500 µM
